Measured values taken from US5387512A, “Preparation of 3-[z-benzoxazol-2-yl)ethyl]-5-(1-hydroxyethyl)-6-methyl-2-(1H)-pyridinon e by biotransformation” (Merck & Co. Inc., priority 1992, dated 1995).

Columns and labels:
[1] = biological target: T1, recombinant HIV reverse transcriptase (HIV RTR) (Human immunodeficiency virus type 1 group M subtype B, UniProt P04585); test: Reverse Transcriptase Assay; format: biochemical; details: incorporation of [3H]dGMP into acid-precipitable cDNA; dGTP and poly r(C).oligo d(G)12-18 at Km; 37° C., 45 minutes; read-out: calculated IC50 value
T1 construct: recombinant HIV reverse transcriptase (HIV RTR)
Description: The assay measures the incorporation of tritiated deoxyguanosine monophosphate by recombinant HIV reverse transcriptase (HIV RTR) (or other RT) into acid-precipitable cDNA at the Km values of dGTP and poly r(C).oligo d(G)12-18.
Thirty uL of a reaction mixture containing equal volumes of: 500 mM Tris.HCl (pH 8.2), 300 mM MgCl2, 1200 mM KCl, 10 mM DTT, 400 μg/mL poly r(c).oligo d(G) [prepared by dissolving 1.5 mg (25 U) poly r(C).oligo d(G) in 1.5 ml sterile distilled H2 O and diluting to 400 μg/ml], 0.1 μCi/μl [^3 H] dGTP, 160 μM dGTP, was added to 10 μl sterile distilled H2 O, and 2.5 μl of potential inhibitor. An aliquot of 10 μL of 5 nM purified HIV RTR was added to initiate the reaction. The mixture was incubated at 37° C. for 45 minutes.
After incubation is complete, the tubes were cooled in ice for 5 minutes. Ice-cold 13% TCA containing 10 mM NaPPi (200 μl) are added and the mixture incubated on ice for 30 minutes. The precipitated cDNA is removed by filtration using presoaked glass filters [TCA, NaPPi ]. The precipitate is then washed with 1N HCl, 10 mM NaPPi.
The filter discs are then counted in a scintillation counter.
Under these conditions [dGTP] and poly r(C).oligo d(G)12-18 each are approximately equal to the appropriate Km value. Approximately 5-6,000 cpm of [^3 H] GMP are incorporated into acid-precipitable material. The RT reaction is concentration- and time-dependent.

[2] = Incubation With Rat Liver Slices; format: in vitro ADME
Description: Incubation of tritiated 3-[2-(benzoxazol-2-yl)ethyl]-5-ethyl-6-methyl-2-(1H)-pyridinone (parent compound/14.18 μmol) with rat liver slices (6.1 g) in 100 ml of Williams Medium E at pH. […] Ethyl acetate extraction gave a recovery of ~70% of the tritiated material, while ~25% (~9 HPLC peaks) remained in the aqueous residue.

Row | SMILES | IC50 [1] | radioactive HPLC peak, share of the total metabolites ([2]; ethyl acetate extract after four hours incubation of parent compound with rat liver slices) | metabolised at 4 h ([2]; tritiated compound 14.18 μmol, rat liver slices 6.1 g, Williams Medium E, pH 7.4, 37° C., four hours, read-out: metabolism)
1 | Cc1[nH]c(=O)c(CCc2nc3ccccc3o2)cc1C(C)O (stereo not drawn) [compound (I), 3-[2-(benzoxazol-2-yl)ethyl]-5-(1-hydroxyethyl)-6-methyl-2(1H)-pyridinone] | ~0.71 µM | ~ 37% | –
2 | CCc1cc(CCc2nc3ccccc3o2)c(O)nc1C [parent compound, 3-[2-(Benzoxazol-2-yl)ethyl]-5-ethyl-6-methyl-2-(1H)-pyridinone] | – | – | ~32%
